Reference: patent US20260284066A1, “TYK2 INHIBITORS AND COMPOSITIONS AND METHODS THEREOF” (LYNK PHARMACEUTICALS CO. LTD., priority 2023, published 2026)
≈ marks a conversion by molar mass, not a printed value. Like-named read-outs stand apart in the source and are kept apart here.

How the values were obtained:
TYK2-JH2 domain = biological target: T1, TYK2-JH2 domain (Homo sapiens, UniProt P29597); test: Binding activity test for TYK2 JH2 domain (Tb-antibody/tracer FRET); details: for JAK1/TYK2 selectivity: ratio of JAK1 JH2 to TYK2 JH2 binding IC50; for IC50: read-out: TYK2 JH2 Binding IC50
T1 construct: JAK1-JH2 domain or TYK2-JH2 domain enzyme
T1 sequence (P29597 589-875 limits assumed): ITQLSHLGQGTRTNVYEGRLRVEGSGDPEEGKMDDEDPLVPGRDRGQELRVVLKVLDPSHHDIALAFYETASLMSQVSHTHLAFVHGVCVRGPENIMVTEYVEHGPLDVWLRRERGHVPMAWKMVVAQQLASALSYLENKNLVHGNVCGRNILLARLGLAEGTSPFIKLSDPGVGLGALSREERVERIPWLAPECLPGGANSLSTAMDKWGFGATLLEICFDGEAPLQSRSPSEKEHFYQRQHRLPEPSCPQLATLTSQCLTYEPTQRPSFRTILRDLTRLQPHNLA

Kinetic solubility = format: physicochemical; details: 100 mM pH 7.4 phosphate buffer, 1% DMSO, room temperature, read-out: Kinetics Solubility_PBS7.4
Protocol: Aliquots of 8 μL of reference and test compound stock solutions (10 mM/5 mM) are added into 792 μL of 100 mM pH 7.4 phosphate buffer. The final DMSO concentration is 1%. Sample tubes are shaken for 2 hours at 1000 rpm at room temperature. Samples are centrifuged at 12000 rpm for 10 min to precipitate un-dissolved particles. And transfer the supernatants to a new tube or plate. Add 5 μL of samples (no diluted, 10 times diluted and 100 times diluted) and standard curve samples to 95 μL of ACN containing IS for LC-MS/MS analysis.

JAK1-JH2 domain = biological target: T2, JAK1-JH2 domain (Homo sapiens, UniProt P23458); test: Binding activity test for JAK1 JH2 domain (Tb-antibody/tracer FRET); details: read-out: JAK1 JH2 Binding IC50
T2 construct: JAK1-JH2 domain or TYK2-JH2 domain enzyme
T2 sequence (P23458 583-855 limits assumed): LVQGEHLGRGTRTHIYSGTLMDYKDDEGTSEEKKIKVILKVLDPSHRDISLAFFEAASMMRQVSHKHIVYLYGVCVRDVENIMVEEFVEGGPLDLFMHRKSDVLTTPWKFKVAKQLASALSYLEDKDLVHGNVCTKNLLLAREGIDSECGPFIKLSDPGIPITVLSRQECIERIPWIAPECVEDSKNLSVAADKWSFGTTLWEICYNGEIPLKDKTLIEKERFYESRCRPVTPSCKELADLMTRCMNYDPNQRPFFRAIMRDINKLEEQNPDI
Protocol: Binding Activity test for JH2 domain of JAK and TYK2
75 nL DMSO for high control and low control.
For low control, add 5 μL/well assay buffer. […] After enzyme system prepared, add 5 μL of Tb-antibody solution into each wells of assay plate. […] After Tb-antibody added, also add 5 μL of tracer into the assay plate. […] Incubate for 60 mins at 25° C. firstly and then continue to incubate the plate at 4° C. overnight. Read by envision in FRET mode. The Luminescence value was recorded by a multi-label reader Envision (PerkinElmer). Inhibition Rate was calculated relative to vehicle (DMSO) treated control wells using following formula:
wherein • RLU_compound=the relative light unit of cells treated with test compounds • RLU_low control=the relative light unit of medium with DMSO only • RLU_high control=the relative light unit of cells treated with DMSO only

[1] = Microsomal metabolic stability assay; format: in vitro ADME, human; details: for half-life at 1 µM / microsomal CLint at 1 µM: human, liver microsomes, pH 7.4, human liver microsomes 0.5 mg/mL; for half-life at 1 µM: read-out: Human LM T½; for microsomal CLint at 1 µM: read-out: Human LM Clint
Protocol: Microsomal Metabolic Stability Assay
Microsomes were pre-incubated with test compound or control compounds for 5 min at 37° C. in 100 mM potassium phosphate buffer, pH 7.4, 1.0 mM EDTA. The reaction was initiated by addition of 15 μL of the NADPH regenerating system to 30 μL of each incubation mixture per time point. The final incubation condition was composed of 0.5 mg/mL microsomal protein, 1 μM test article/positive control, 2 mM NADPH. The 0-minute samples were prepared by addition of a 30 μL aliquot of each incubation mixture to 135 μL quench reagent to precipitate proteins. And then a 15 μL aliquot of the NADPH regenerating system was added. At 5, 15, 30 and 45 minutes, the reaction will be stopped by the addition of cold acetonitrile solution containing internal standard. The samples taken at all time points were centrifuged at 5000×g for 15 minutes. 50 μL of supernatant are taken into 96-well assay plates pre-added with 50 μL ultrapure water, and then analyzed by LC/MS/MS.
Concentrations of test articles, control compounds in the samples were determined by using LC/MS/MS method. Plotting of the chromatograms and peak area integrations are carried out by Analyst (AB Sciex).
In the determination of the in vitro elimination constant (ke) of the control compounds, the analyte/internal standard peak area ratios will be converted to percentage remaining (% Remaining) with the following equation:
The CLint of microsomes was calculated using the formula: CLint (mic)=0.693/T1/2/mg microsome protein per mL. The slope was measured by the natural logarithm of the percentage of the residual compound and time, T1/2 was calculated according to the following formula.

TYK2 pathway = test: IFN-γ release in NK92 cells stimulated by IL-12 (ELISA); format: cell-based; details: Homo sapiens, IL-12 2.5 ng/mL
Text: IFN-γ Release in NK92 Cells Stimulated by IL-12
Purpose: To evaluate the inhibition activity of TYK2 inhibitors in NK92 cells on TYK2 pathway through ELISA method.

pSTAT1 = test: Phosphorylation inhibition of STAT in human whole blood (IFN-alpha stimulated, flow cytometry); format: cell-based; details: T-cell, CD3+ T cells, read-out: pSTAT1 inhibition in hWB (IC50)
Protocol: Phosphorylation Inhibition of STAT in Human Whole Blood Testing: The inhibitory potential of test articles in human whole blood assay was evaluated by the method of flow cytometry. IFN-alpha will activate JAK1 and TYK2 kinase in T cells by binding to IFN receptors, and then lead to phosphorylation of STAT1 and STAT2. The phosphorylated STAT1 enter nuclear and promote transcription and expression of IFN-gamma. To evaluate the efficacy of TYK2i in T cells, freshly collected human whole blood will be stimulated with certain unit of human IFN-alpha (Universal Type I IFN (1MU), R&D, 11200-2) for 20 mins in incubator. After stimulation, fix cells with PhosflowTM Fix Buffer I (BD, 557870), and then collect fixed cells by centrifugation (500 g, 8 min). Wash cells once with pre-cooled PBS, and then permeabilize cells with cold Perm Buffer III buffer (BD, 558050) for 45 mins on ice. Collect cells by centrifugation (600 g, 8 min) and washed twice with cold PBS. Stain cells with anti-human CD3(FITC Mouse Anti-Human CD3, BD, 555332) and anti-pSTAT1_Y701 (Alexa Fluor 647 Mouse Anti-Stat1 ([…]), BD, 612597) antibodies. Detect pSTAT1 by flow cytometry (CytoFlex S) and analyze data with FlowJo and GraphPad Prism 8 software. IC50 values of test articles were determined using 4-parameter logistic equation.

[2] = human liver microsomes 0.5 mg/mL, 1 μM

Compound: [2H]C([2H])([2H])NC(=O)c1cnc(NC(=O)C2CC2)cc1Nc1ncc2cnn(C(C)C(F)(F)F)c2c1OC (single isomer, unassigned) [Example 3B, (S*)-6-(Cyclopropanecarboxamido)-4-((7-methoxy-1-(1,1,1-trifluoropropan-2-yl)-1H-pyrazolo[4,3-c]pyridin-6-yl)amino)-N-(methyl-d3)nicotinamide]
- JAK1/TYK2 selectivity (TYK2-JH2 domain): 141.36
- IC50 (TYK2-JH2 domain): 0.805 nM
- solubility kinetic at 2 h (Kinetic solubility; aqueous buffer): 12.8 µM (≈ 6.13 µg/mL)
- IC50 (JAK1-JH2 domain): 114 nM
- Human LM Clint [1, 2]: 5.33 µL/min/mg
- half-life at 1 µM [1]: 4.33 h

Compound: [2H]C([2H])([2H])NC(=O)c1cnc(NC(=O)C2CC2)cc1Nc1ccn2ncc(Br)c2c1OC [Example 29, 4-((3-Bromo-4-methoxypyrazolo[1,5-a]pyridin-5-yl)amino)-6-(cyclopropanecarboxamido)-N-(methyl-d3)nicotinamide]
- JAK1/TYK2 selectivity (TYK2-JH2 domain): 42.0
- IC50 (TYK2-JH2 domain): 0.188 nM
- IC50 (TYK2 pathway): 32.1 nM
- IC50 (JAK1-JH2 domain): 7.87 nM

Compound: [2H]C([2H])([2H])NC(=O)c1cnc(NC(=O)C2CC2)cc1Nc1cc(F)c2ccn(CC)c2c1OC [Example 16, 6-(Cyclopropanecarboxamido)-4-((1-ethyl-4-fluoro-7-methoxy-1H-indol-6-yl)amino)-N-(methyl-d3)nicotinamide]
- JAK1/TYK2 selectivity (TYK2-JH2 domain): 70.10
- IC50 (TYK2-JH2 domain): 0.083 nM
- IC50 (JAK1-JH2 domain): 5.82 nM
- IC50 (pSTAT1): 220 nM

Compound: [2H]C([2H])([2H])NC(=O)c1cnc(NC(=O)C2CC2)cc1Nc1ccc2cnn(CC(C)(F)F)c2c1OC [Example 2, 6-(Cyclopropanecarboxamido)-4-((1-(2,2-difluoropropyl)-7-methoxy-1H-indazol-6-yl)amino)-N-(methyl-d3)nicotinamide]
- JAK1/TYK2 selectivity (TYK2-JH2 domain): 78.97
- IC50 (TYK2-JH2 domain): 0.239 nM
- IC50 (JAK1-JH2 domain): 18.9 nM
- microsomal CLint at 1 µM [1]: 53.8 µL/min/mg
- half-life at 1 µM [1]: 0.429 h
- IC50 (pSTAT1): 327 nM

Compound: [2H]C([2H])([2H])NC(=O)c1cnc(NC(=O)[C@H]2C[C@H]2F)cc1Nc1ncc2cnn(CC(F)(F)F)c2c1OC [Example 10, 6-((1R,2R)-2-fluorocyclopropane-1-carboxamido)-4-((7-methoxy-1-(2,2,2-trifluoroethyl)-1H-pyrazolo[4,3-c]pyridin-6-yl)amino)-N-(methyl-d3)nicotinamide]
- JAK1/TYK2 selectivity (TYK2-JH2 domain): 86.04
- IC50 (TYK2-JH2 domain): 0.408 nM
- solubility kinetic at 2 h (Kinetic solubility; aqueous buffer): 29 µM (≈ 14 µg/mL)
- IC50 (JAK1-JH2 domain): 35.1 nM
- microsomal CLint at 1 µM [1]: 4.49 µL/min/mg
- half-life at 1 µM [1]: 5.15 h

Compound: [2H]C([2H])([2H])NC(=O)c1cnc(NC(=O)C2CC2)cc1Nc1ncc2ccn(CC)c2c1OC [Example 18, 6-(Cyclopropanecarboxamido)-4-((1-ethyl-7-methoxy-1H-pyrrolo[3,2-c]pyridin-6-yl)amino)-N-(methyl-d3)nicotinamide]
- JAK1/TYK2 selectivity (TYK2-JH2 domain): 83.55
- IC50 (TYK2-JH2 domain): 0.049 nM
- solubility kinetic at 2 h (Kinetic solubility; aqueous buffer): 41.5 µM (≈ 17.1 µg/mL)
- IC50 (JAK1-JH2 domain): 4.09 nM

Compound: [2H]C([2H])([2H])NC(=O)c1cnc(NC(=O)C2CC2)nc1Nc1ncc2cnn(CC(C)(F)F)c2c1OC [Example 28, 2-(Cyclopropanecarboxamido)-4-((1-(2,2-difluoropropyl)-7-methoxy-1H-pyrazolo[4,3-c]pyridin-6-yl)amino)-N-(methyl-d3)pyrimidine-5-carboxamide]
- IC50 (TYK2-JH2 domain): > 298 nM
- solubility kinetic at 2 h (Kinetic solubility; aqueous buffer): 20.6 µM (≈ 9.55 µg/mL)
- IC50 (JAK1-JH2 domain): > 298 nM

Compound: [2H]C([2H])([2H])NC(=O)c1cnc(Nc2ccn(C)n2)cc1Nc1ncc2cnn(CC(C)(F)F)c2c1OC [Example 22, 4-((1-(2,2-Difluoropropyl)-7-methoxy-1H-pyrazolo[4,3-c]pyridin-6-yl)amino)-N-(methyl-d3)-6-((1-methyl-1H-pyrazol-3-yl)amino)nicotinamide]
- JAK1/TYK2 selectivity (TYK2-JH2 domain): 113.31
- IC50 (TYK2-JH2 domain): 2.62 nM
- solubility kinetic at 2 h (Kinetic solubility; aqueous buffer): 19.8 µM (≈ 9.39 µg/mL)
- IC50 (JAK1-JH2 domain): 297 nM
- microsomal CLint at 1 µM [1]: 9.25 µL/min/mg
- half-life at 1 µM [1]: 2.5 h

Compound: CNC(=O)c1cnc(NC(=O)C2CC2)cc1Nc1ncn2ncc(C#N)c2c1OC [Example 20, 4-((3-Cyano-4-methoxypyrazolo[1,5-c]pyrimidin-5-yl)amino)-6-(cyclopropanecarboxamido)-N-methylnicotinamide]
- JAK1/TYK2 selectivity (TYK2-JH2 domain): 63.62
- IC50 (TYK2-JH2 domain): 0.304 nM
- IC50 (JAK1-JH2 domain): 19.3 nM
- microsomal CLint at 1 µM [1]: 39.2 µL/min/mg
- half-life at 1 µM [1]: 0.589 h
- IC50 (pSTAT1): 167 nM

Compound: [2H]C([2H])([2H])NC(=O)c1cnc(NC(=O)C2CC2)cc1Nc1ccc2ccn(C([2H])([2H])[2H])c2c1OC [Example 15, 6-(Cyclopropanecarboxamido)-4-((7-methoxy-1-(methyl-d3)-1H-indol-6-yl)amino)-N-(methyl-d3)nicotinamide]
- JAK1/TYK2 selectivity (TYK2-JH2 domain): 15.64
- IC50 (TYK2-JH2 domain): 0.094 nM
- IC50 (JAK1-JH2 domain): 1.47 nM
- IC50 (pSTAT1): 205 nM

Compound: (R*)-6(Cyclopropanecarboxamido)-4((7-methoxy-1-(1,1,1-trifuoropropan-2-yl)-1H-pyrazolo[4,3-c]pyridin-6-yl)amino)-N-(methyl-d3)nicotinamide [Example 3A]
- JAK1/TYK2 selectivity (TYK2-JH2 domain): >34.94
- IC50 (TYK2-JH2 domain): 8.54 nM
- solubility kinetic at 2 h (Kinetic solubility): 19.05 µM
- IC50 (JAK1-JH2 domain): > 298 nM
- Human LM Clint [1, 2]: 6.20 µL/min/mg
- Human LM T½ [1, 2]: 3.7278 h

Compound: [2H]C([2H])([2H])NC(=O)c1cnc(NC(=O)[C@@H]2C[C@@H]2F)cc1Nc1ncc2cnn(CC(F)(F)F)c2c1OC [Example 9, 6-((1S,2S)-2-fluorocyclopropane-1-carboxamido)-4-((7-methoxy-1-(2,2,2-trifluoroethyl)-1H-pyrazolo[4,3-c]pyridin-6-yl)amino)-N-(methyl-d3)nicotinamide]
- JAK1/TYK2 selectivity (TYK2-JH2 domain): 166.08
- IC50 (TYK2-JH2 domain): 0.212 nM
- solubility kinetic at 2 h (Kinetic solubility; aqueous buffer): 38.2 µM (≈ 18.5 µg/mL)
- IC50 (JAK1-JH2 domain): 35.2 nM
- microsomal CLint at 1 µM [1]: 5.42 µL/min/mg
- half-life at 1 µM [1]: 4.27 h
- IC50 (pSTAT1): 274 nM

Compound: [2H]C([2H])([2H])NC(=O)c1cnc(NC(=O)C2CC2)cc1Nc1ncc2ncn(CC(C)(F)F)c2c1OC [Example 14, 6-(Cyclopropanecarboxamido)-4-((1-(2,2-difluoropropyl)-7-methoxy-1H-imidazo[4,5-c]pyridin-6-yl)amino)-N-(methyl-d3)nicotinamide]
- JAK1/TYK2 selectivity (TYK2-JH2 domain): 217.86
- IC50 (TYK2-JH2 domain): 0.178 nM
- solubility kinetic at 2 h (Kinetic solubility; aqueous buffer): 16.9 µM (≈ 7.82 µg/mL)
- IC50 (JAK1-JH2 domain): 38.8 nM
- microsomal CLint at 1 µM [1]: 39.2 µL/min/mg
- half-life at 1 µM [1]: 0.589 h
